Measurements from US7528205B2, “Photo radical generator, photo sensitive resin composition and article” (Dai Nippon Printing Co., Ltd., priority 2003, dated 2009).
Where two headings read alike, the source gives them in different places.

Experiments:
[1] = Evaluation of heat resistance (thermogravimetry, 5% reduction in weight temperature); format: physicochemical; conditions: for 5% heat decomposition temperature: temperature rise rate 10° C./min
Protocol: Herein, the 5% reduction in weight temperature means a temperature at which the weight of a sample is reduced […] when a decrement of weight is measured using a thermogravimetric analyzer according to the same method as in the examples of the present invention as will be explained later. Similarly, the 10% reduction in weight temperature means a temperature at which the weight of a sample is reduced […].
Using a differential type differential thermal balance (product name: TG8120; manufactured by Rigaku Corporation), the 5% reduction in weight temperature of each of the compounds 1 to 15 was measured at a temperature rise rate of 10° C./min in a nitrogen atmosphere. As comparative examples, the comparative compounds 2 and 3 and a self-cleavage type photoradical generator Irgacure 907 (trademark; manufactured by Ciba Specialty Chemicals) were similarly measured.

[2] = Evaluation of transparency (transmittance of cured coating layer); format: physicochemical
Protocol: Using a trifunctional acrylate (product name; M305, manufactured by Toagosei Co., Ltd.) as polyfunctional monomers, each of the compound 1, a combination of the compound 1 and triethanolamine of the same number of mol and a photoradical generator Irgacure 907 (Irg907) were mixed to prepare each THF solution in the same ratio as the Evaluation of curability. Each solution was applied by spin coating to a glass substrate and heated on a 50° C. hot plate for one minute. Then, the substrate was exposed to light from a high pressure mercury lamp at an intensity of 2,000 mJ/cm^2 based on h-rays by using a hand-operated exposure apparatus (MA-1200, manufactured by Dainippon Screen Mfg. Co., Ltd.), to obtain a coating layer having a thickness of 4.2±0.05 μm. The transmittance of each coating layer was measured by a spectrometer (UV-2550 (PC)S GLP; manufactured by Shimadzu Corporation).

Solubility test = format: physicochemical; conditions: for solubility at 3 h: organic solvent or mixture, thermodynamic from solid
Protocol: As for the compound 1 and the comparative compound 3, a solubility test was performed respectively. Each sample was added to each solvent or monomer so as to be 0.5 mol/L at 20° C. After radiating ultrasonic wave for 3 hours, one with a precipitate was concluded as “0” and one without a precipitate was concluded as “x”.

[3] = Evaluation 1 of curability (coating layer with trifunctional acrylate, UV exposure, no hydrogen donor); conditions: for Reaction rate (decrement of double bond): nitrogen; for Compatibility with M305: imide part/double bond 1/50
Protocol: (§1) Using a trifunctional acrylate (product name; M-305, manufactured by Toagosei Co., Ltd.) as polyfunctional monomers, the compounds 1 to 14, the comparative compounds 2 and 3 and a photoradical generator Irgacure 907 (product name; manufactured by Ciba Specialty Chemicals) were mixed with each polyfunctional monomer to prepare each THF solution of each photoradical generator.
(§2) The mixing was performed so that a ratio of the photoradical generator to the polyfunctional monomer is such that number of imide part of each of the compounds 1 to 14 and the comparative compounds 2 and 3 with respect to number of double bond of the polyfunctional monomer is 1/50 (number of imide part/number of polyfunctional monomer) or, in the case of Irgacure, number of the molecule with respect to number of double bond of the polyfunctional monomer is 1/50 (number of Irgacure 907/number of polyfunctional monomer).
(§3) Each solution was applied by spin coating to a glass substrate on which chromium was sputtered to obtain coating layers. Also, a layer without initiator component or comparative compounds and only containing trifunctional acrylate was formed as a blank.
(§4) A decrement of the peak at 810 cm^−1 was recorded with time by using an infrared spectrometer (product name: FTS6000; manufactured by BIO RAD) while exposing the above coating layer to ultraviolet rays, to confirm the degree of the disappearance of a double bond. The atmosphere around the sample during measurement was replaced with nitrogen. As the UV exposure apparatus, UV Spot Cure SP-III type (standard reflecting mirror type) manufactured by Ushio Inc. was used and as the UV lamp, USH-255BY (manufactured by Ushio Inc.) was used.

[4] = Evaluation of ultraviolet absorption; format: physicochemical; conditions: for ultraviolet absorption bottom edge / ultraviolet absorption maximum wavelength: acetonitrile solution, 1.0×10^−5 mol/L
Protocol: Using an acetonitrile solution containing 1.0×10^−5 mol/L of each of the compounds 1 and 15, each ultraviolet absorption spectrum was measured.

[5] = Evaluation 2 of curability (triethanolamine added as hydrogen donor)
Protocol: as §1, §2, §3, §4
In order to confirm whether or not the seven-membered ring imide structure-containing group was a hydrogen-drawing type radical generator, triethanolamine was added to THF solutions containing each of the compositions 1 to 14 used in the aforementioned Evaluation 1 of curability and trifunctional acrylate M305, coating layers were formed in the same manner as in the aforementioned Evaluation 1 of curability, and evaluated similarly. As comparative examples, each of the comparative compounds 1 and 3 was used.

[6] = 0.5 mol/L at 20° C., ultrasonic wave 3 hours

| SMILES | 5% heat decomposition temperature ([1]; nitrogen atmosphere) [°C] | Solubility in Acetone (Solubility test; [6]) | Solubility in Chloroform (Solubility test; [6]) | Solubility in Dimethylformamide (Solubility test; [6]) | Solubility in Tetrahydrofuran (Solubility test; [6]) | Reaction rate (decrement of double bond) ([3]; Exposure 50 mJ) [%] | Reaction rate (decrement of double bond) ([3]; Exposure 100 mJ) [%] | Reaction rate (decrement of double bond) ([3]; Exposure 400 mJ) [%] | Compatibility with M305 [3] | ultraviolet absorption bottom edge [4] | ultraviolet absorption maximum wavelength [4] | Compatibility with M305 [5] | Reaction rate (decrement of double bond) ([5]; Exposure 50 mJ) [%] | Reaction rate (decrement of double bond) ([5]; Exposure 100 mJ) [%] | Reaction rate (decrement of double bond) ([5]; Exposure 400 mJ) [%] | other results |
| --- | --- | --- | --- | --- | --- | --- | --- | --- | --- | --- | --- | --- | --- | --- | --- | --- |
| COCCn1c(=O)c2ccccc2c2ccccc2c1=O [Compound 1] | 224 | ∘ | ∘ | ∘ | ∘ | 0.3 | 0.5 | 1.1 | ∘ | about 320 nm | about 240 nm | ∘ | 17.3 | 23.6 | 36.6 | transmittance of cured layer ([2]; M305 coating layer 4.2±0.05 μm, 2,000 mJ/cm^2, compared to Irg907): high in transmittance with respect to the light of 410 nm or less; transmittance of cured layer ([2]; triethanolamine of the same number of mol added, M305 coating layer 4.2±0.05 μm): almost same in transmittance as in the case of only the compound 1; solubility, comparison in words (Solubility test): superior in solubility to the comparative compound 3; Solubility in Ethyl acetate (Solubility test; [6]): ∘; Solubility in Ethyl lactate (Solubility test; [6]): ∘; Solubility in Methyl acrylate (Solubility test; [6]): ∘; Solubility in Pentaerythritol triacrylate (M305) (Solubility test; [6]): ∘; Solubility in Propylene glycol monoethyl ether acetate (Solubility test; [6]): ∘ |
| CN(C)CCn1c(=O)c2ccccc2c2ccccc2c1=O [Compound 13] | 177 | – | – | – | – | 0.2 | 0.8 | 4.2 | ∘ | – | – | ∘ | 11.0 | 15.2 | 24.8 | heat resistance / 5% reduction in weight temperature, comparison in words ([1]; 10° C./min, nitrogen atmosphere): slightly lower 5% reduction in weight temperature |
| CC(=O)OCCN(CCn1c(=O)c2ccccc2c2ccccc2c1=O)C(C)=O [Compound 14] | 234 | – | – | – | – | 1.0 | 2.0 | 6.4 | ∘ | – | – | ∘ | 16.8 | 20.9 | 30.5 | – |
| COCCn1c(=O)c2cc([N+](=O)[O-])ccc2c2ccc([N+](=O)[O-])cc2c1=O [Compound 15] | 280 | – | – | – | – | – | – | – | – | about 320 nm | about 240 nm | – | – | – | – | improvement of heat decomposition temperature in comparison with the compound 1 [1]: ≥ 50 °C; absorption at 365 nm (emitting wavelength of high pressure mercury lamp) [4]: has absorption at a wavelength of 365 nm |
| C=CC(=O)OCCN1C(=O)C2=C(CCCC2)C1=O [compound 2, reference compound] | 184 | – | – | – | – | 0.1 | 0.3 | 2.0 | ∘ | – | – | ∘ | 1.3 | 2.0 | 8.6 | – |
| COCCN1C(=O)c2cccc3cccc(c23)C1=O [compound 3, reference compound] | 229 | ∘ | ∘ | ∘ | ∘ | 1.0 | 2.5 | 26.6 | ∘ | – | – | ∘ | 3.3 | 5.4 | 11.1 | solubility at 3 h (Solubility test; ethyl acetate, 0.5 mol/L at 20° C., ultrasonic wave 3 hours, read-out: Solubility in Ethyl acetate): < 500 mM; solubility at 3 h (Solubility test; ethyl lactate, 0.5 mol/L at 20° C., ultrasonic wave 3 hours, read-out: Solubility in Ethyl lactate): < 500 mM; solubility at 3 h (Solubility test; methyl acrylate, 0.5 mol/L at 20° C., ultrasonic wave 3 hours, read-out: Solubility in Methyl acrylate): < 500 mM; solubility at 3 h (Solubility test; pentaerythritol triacrylate (M305), 0.5 mol/L at 20° C., ultrasonic wave 3 hours, read-out: Solubility in Pentaerythritol triacrylate (M305)): < 500 mM; solubility at 3 h (Solubility test; propylene glycol monoethyl ether acetate, 0.5 mol/L at 20° C., ultrasonic wave 3 hours, read-out: Solubility in Propylene glycol monoethyl ether acetate): < 500 mM |
